Reference: ChEMBL document CHEMBL3132769, “Fragment growing to retain or alter the selectivity of anchored kinase hinge-binding fragments” (Medchemcomm, 2014)

Key:
[1] = target: Mitogen-activated protein kinase 3 (Homo sapiens) (UniProt P27361); assay: Inhibition of human full length ERK1 expressed in Escherichia coli cell assessed as substrate phosphorylation using fluorescence-labelled peptides as substrate at 9 uM after 90 mins by microfluidic peptide phosphorylation assay
[2] = target: Rho-associated protein kinase 2 (Homo sapiens) (UniProt O75116); assay: Inhibition of human ROCK2 catalytic domain expressed in baculovirus assessed as substrate phosphorylation using fluorescence-labelled peptides as substrate at 9 uM after 90 mins by microfluidic peptide phosphorylation assay
[3] = target: Mitogen-activated protein kinase 14 (Homo sapiens) (UniProt Q16539); assay: Inhibition of human truncated p38 alpha expressed in Escherichia coli cell assessed as substrate phosphorylation using fluorescence-labelled peptides as substrate at 95 uM after 90 mins by microfluidic peptide phosphorylation assay
Chain of Mitogen-activated protein kinase 14 (Homo sapiens) (Q16539 whole entry, the tested form may be a part): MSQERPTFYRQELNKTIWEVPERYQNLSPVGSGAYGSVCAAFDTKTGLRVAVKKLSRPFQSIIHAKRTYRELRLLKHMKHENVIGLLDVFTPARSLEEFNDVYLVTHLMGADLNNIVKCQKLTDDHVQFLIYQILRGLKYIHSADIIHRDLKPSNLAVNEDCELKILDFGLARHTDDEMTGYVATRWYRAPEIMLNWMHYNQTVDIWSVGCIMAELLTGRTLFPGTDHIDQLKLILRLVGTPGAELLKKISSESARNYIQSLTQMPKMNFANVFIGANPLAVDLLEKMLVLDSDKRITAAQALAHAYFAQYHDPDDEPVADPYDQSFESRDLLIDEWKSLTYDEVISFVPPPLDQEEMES

[4] = target: Cyclin-dependent kinase 2 (Homo sapiens) (UniProt P24941); assay: Inhibition of human full length CDK2 expressed in baculovirus assessed as substrate phosphorylation using fluorescence-labelled peptides as substrate at 95 uM after 90 mins by microfluidic peptide phosphorylation assay
[5] = target: Tyrosine-protein kinase HCK (Homo sapiens) (UniProt P08631); assay: Inhibition of human HCK catalytic domain expressed in baculovirus assessed as substrate phosphorylation using fluorescence-labelled peptides as substrate at 0.06 uM after 90 mins by microfluidic peptide phosphorylation assay
[6] = target: Serine/threonine-protein kinase pim-1 (Homo sapiens) (UniProt P11309); assay: Inhibition of human full length PIM1 expressed in baculovirus assessed as substrate phosphorylation using fluorescence-labelled peptides as substrate at 0.1 uM after 90 mins by microfluidic peptide phosphorylation assay
Chain of Serine/threonine-protein kinase pim-1 (Homo sapiens) (P11309 whole entry, looked up, the tested form may be a part): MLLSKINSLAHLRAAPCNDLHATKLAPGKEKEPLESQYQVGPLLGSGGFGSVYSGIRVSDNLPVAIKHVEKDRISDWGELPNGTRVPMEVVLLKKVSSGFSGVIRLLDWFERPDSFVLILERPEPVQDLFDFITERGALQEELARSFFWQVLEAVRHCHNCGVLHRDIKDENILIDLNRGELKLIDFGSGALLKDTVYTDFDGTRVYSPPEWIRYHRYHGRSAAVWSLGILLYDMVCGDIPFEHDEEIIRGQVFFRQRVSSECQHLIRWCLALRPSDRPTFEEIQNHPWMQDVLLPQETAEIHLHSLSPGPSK

[7] = target: Fibroblast growth factor receptor 3 (Homo sapiens) (UniProt P22607); assay: Inhibition of human FGFR3 catalytic domain expressed in baculovirus assessed as substrate phosphorylation using fluorescence-labelled peptides as substrate at 0.1 uM after 90 mins by microfluidic peptide phosphorylation assay
Chain of Fibroblast growth factor receptor 3 (Homo sapiens) (P22607 23-806 limits assumed): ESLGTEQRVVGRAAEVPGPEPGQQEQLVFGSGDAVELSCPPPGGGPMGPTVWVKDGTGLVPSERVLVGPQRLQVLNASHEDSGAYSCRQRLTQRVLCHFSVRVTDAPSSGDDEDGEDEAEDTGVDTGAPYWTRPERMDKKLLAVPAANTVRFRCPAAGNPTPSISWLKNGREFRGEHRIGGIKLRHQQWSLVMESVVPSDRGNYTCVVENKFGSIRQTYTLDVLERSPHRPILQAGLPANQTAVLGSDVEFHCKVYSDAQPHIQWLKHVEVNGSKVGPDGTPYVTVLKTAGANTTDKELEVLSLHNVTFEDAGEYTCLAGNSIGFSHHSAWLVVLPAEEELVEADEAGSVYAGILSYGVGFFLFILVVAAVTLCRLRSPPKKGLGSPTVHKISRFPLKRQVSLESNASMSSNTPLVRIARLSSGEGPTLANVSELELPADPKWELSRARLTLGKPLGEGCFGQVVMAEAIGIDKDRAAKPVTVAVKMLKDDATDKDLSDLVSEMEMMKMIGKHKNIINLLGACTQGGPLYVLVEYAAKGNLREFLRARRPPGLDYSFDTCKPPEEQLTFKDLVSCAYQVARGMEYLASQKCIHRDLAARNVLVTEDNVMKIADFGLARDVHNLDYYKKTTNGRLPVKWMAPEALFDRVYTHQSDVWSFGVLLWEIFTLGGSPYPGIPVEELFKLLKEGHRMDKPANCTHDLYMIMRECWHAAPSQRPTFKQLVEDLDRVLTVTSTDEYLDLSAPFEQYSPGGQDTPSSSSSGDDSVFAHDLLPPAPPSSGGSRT

[8] = target: Fibroblast growth factor receptor 4 (Homo sapiens) (UniProt P22455); conditions: 0.1 uM
Chain of Fibroblast growth factor receptor 4 (Homo sapiens) (P22455 22-802 limits assumed): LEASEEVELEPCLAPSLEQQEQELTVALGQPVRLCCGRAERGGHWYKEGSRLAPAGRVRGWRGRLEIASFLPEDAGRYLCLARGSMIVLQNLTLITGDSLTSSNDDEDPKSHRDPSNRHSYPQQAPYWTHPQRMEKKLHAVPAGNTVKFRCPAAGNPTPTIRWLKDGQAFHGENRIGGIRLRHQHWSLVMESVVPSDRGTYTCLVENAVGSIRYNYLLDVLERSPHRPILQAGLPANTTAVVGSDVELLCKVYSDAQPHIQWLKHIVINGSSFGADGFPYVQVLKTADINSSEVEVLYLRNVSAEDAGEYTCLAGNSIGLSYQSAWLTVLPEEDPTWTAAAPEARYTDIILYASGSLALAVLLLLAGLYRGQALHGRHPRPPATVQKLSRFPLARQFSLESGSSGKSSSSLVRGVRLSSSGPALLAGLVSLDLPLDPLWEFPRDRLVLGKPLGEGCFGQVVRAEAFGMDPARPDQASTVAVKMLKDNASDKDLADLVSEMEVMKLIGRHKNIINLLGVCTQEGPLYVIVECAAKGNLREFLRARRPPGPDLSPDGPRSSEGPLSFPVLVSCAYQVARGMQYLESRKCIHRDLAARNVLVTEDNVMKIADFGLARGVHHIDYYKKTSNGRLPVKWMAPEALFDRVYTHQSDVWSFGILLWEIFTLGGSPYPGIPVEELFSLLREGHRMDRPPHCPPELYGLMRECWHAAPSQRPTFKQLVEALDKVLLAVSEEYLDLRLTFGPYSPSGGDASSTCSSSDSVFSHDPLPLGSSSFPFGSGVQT
Description: Inhibition of human FGFR4 catalytic domain expressed in baculovirus assessed as substrate phosphorylation using fluorescence-labelled peptides as substrate at 0.1 uM after 90 mins by microfluidic peptide phosphorylation assay

[9] = target: Protein kinase C beta type (Homo sapiens) (UniProt P05771); assay: Inhibition of human truncated PKC beta1 expressed in baculovirus assessed as substrate phosphorylation using fluorescence-labelled peptides as substrate at […] after 90 mins by microfluidic peptide phosphorylation assay
Chain of Protein kinase C beta type (Homo sapiens) (P05771 2-671 limits assumed): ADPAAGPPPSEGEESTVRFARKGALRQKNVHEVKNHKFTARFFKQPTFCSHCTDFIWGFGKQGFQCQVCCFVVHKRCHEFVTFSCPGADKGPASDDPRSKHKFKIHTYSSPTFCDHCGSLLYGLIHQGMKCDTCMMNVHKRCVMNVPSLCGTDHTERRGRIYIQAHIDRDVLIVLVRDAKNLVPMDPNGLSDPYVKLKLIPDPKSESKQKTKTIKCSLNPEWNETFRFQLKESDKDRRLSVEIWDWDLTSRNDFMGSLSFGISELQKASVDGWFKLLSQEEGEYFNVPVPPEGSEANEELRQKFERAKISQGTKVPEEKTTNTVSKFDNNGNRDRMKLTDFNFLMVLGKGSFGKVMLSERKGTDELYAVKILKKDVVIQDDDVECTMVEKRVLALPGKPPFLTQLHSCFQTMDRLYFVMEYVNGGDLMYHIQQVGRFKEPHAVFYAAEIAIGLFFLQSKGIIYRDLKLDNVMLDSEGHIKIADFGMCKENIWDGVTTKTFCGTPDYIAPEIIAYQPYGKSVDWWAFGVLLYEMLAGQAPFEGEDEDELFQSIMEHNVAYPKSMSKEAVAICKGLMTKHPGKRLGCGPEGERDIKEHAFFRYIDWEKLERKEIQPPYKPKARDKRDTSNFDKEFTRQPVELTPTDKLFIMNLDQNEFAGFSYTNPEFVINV

[10] = target: Tyrosine-protein kinase Lck (Homo sapiens) (UniProt P06239); assay: Inhibition of human full length LCK expressed in baculovirus assessed as substrate phosphorylation using fluorescence-labelled peptides as substrate at 420 uM after 90 mins by microfluidic peptide phosphorylation assay
Chain of Tyrosine-protein kinase Lck (Homo sapiens) (P06239 2-509 limits assumed): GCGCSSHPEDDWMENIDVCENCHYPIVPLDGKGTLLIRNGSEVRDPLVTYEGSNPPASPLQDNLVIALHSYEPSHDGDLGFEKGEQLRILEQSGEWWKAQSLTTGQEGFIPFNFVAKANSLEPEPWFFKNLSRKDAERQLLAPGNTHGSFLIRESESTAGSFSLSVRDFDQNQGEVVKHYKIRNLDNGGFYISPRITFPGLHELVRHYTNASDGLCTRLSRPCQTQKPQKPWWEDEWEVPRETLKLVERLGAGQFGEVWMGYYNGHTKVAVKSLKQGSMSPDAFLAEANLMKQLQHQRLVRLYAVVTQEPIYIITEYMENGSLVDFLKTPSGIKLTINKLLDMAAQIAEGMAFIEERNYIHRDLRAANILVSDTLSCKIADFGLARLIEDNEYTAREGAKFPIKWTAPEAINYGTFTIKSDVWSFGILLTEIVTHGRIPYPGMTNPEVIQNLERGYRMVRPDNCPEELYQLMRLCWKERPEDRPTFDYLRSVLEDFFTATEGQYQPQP

[11] = target: Casein kinase I isoform alpha (Homo sapiens) (UniProt P48729); assay: Inhibition of human full length CSNK1A1 expressed in baculovirus assessed as substrate phosphorylation using fluorescence-labelled peptides as substrate at 0.2 uM after 90 mins by microfluidic peptide phosphorylation assay
[12] = target: Platelet-derived growth factor receptor alpha (Homo sapiens) (UniProt P16234); assay: Inhibition of human PDGFR alpha catalytic domain expressed in baculovirus assessed as substrate phosphorylation using fluorescence-labelled peptides as substrate at 2 uM after 90 mins by microfluidic peptide phosphorylation assay
Chain of Platelet-derived growth factor receptor alpha (Homo sapiens) (P16234 whole entry, the tested form may be a part): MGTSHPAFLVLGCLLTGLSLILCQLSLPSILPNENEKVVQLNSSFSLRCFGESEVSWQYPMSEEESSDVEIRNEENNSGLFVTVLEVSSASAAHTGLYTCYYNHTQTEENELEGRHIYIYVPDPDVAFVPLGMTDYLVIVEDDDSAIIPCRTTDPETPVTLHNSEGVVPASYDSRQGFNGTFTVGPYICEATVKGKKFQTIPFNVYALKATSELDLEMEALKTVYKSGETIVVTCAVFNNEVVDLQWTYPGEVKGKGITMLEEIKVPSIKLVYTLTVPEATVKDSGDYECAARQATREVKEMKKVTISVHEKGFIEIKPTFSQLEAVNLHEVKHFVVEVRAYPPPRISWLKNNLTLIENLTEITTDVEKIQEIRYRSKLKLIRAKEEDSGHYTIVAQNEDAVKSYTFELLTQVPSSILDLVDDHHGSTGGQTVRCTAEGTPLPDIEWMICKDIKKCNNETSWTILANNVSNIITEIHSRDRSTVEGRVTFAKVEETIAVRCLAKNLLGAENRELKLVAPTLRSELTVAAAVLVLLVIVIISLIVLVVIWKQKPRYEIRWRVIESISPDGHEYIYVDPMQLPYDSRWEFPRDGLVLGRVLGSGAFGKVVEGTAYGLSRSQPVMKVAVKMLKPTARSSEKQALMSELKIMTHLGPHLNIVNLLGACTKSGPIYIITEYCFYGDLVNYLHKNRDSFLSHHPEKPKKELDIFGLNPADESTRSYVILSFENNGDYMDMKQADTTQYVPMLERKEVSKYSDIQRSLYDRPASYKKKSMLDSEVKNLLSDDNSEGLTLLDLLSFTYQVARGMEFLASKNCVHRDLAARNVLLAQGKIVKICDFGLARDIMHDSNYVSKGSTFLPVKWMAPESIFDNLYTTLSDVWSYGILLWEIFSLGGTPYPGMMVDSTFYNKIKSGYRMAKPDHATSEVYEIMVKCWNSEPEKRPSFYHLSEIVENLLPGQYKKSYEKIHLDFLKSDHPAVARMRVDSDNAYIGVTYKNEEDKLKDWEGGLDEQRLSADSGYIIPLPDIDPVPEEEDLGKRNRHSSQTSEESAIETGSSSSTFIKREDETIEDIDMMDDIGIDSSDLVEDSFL

[13] = target: T1, cGMP-dependent protein kinase 1 (Homo sapiens) (UniProt Q13976); assay: Inhibition of human full length PKG-1a expressed in baculovirus assessed as substrate phosphorylation using fluorescence-labelled peptides as substrate at 8 uM after 90 mins by microfluidic peptide phosphorylation assay
T1 sequence (whole entry): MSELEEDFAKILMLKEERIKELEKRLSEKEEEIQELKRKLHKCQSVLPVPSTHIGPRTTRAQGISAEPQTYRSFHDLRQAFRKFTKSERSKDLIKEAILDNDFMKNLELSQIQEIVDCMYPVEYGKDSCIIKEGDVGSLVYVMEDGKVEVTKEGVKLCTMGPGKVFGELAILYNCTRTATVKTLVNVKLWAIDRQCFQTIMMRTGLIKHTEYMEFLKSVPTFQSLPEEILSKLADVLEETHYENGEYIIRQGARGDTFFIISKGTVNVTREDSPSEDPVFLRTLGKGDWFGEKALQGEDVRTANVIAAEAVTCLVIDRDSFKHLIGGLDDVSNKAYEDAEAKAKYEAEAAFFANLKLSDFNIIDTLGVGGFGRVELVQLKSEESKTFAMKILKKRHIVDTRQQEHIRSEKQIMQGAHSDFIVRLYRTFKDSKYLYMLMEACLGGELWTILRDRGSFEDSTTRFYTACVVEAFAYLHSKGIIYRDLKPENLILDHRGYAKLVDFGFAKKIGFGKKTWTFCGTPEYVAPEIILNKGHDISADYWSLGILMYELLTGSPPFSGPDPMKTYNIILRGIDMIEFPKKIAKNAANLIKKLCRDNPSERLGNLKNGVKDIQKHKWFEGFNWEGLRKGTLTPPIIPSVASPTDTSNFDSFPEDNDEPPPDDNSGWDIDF

[14] = target: Fibroblast growth factor receptor 1 (Homo sapiens) (UniProt P11362); assay: Inhibition of human FGFR1 catalytic domain expressed in baculovirus assessed as substrate phosphorylation using fluorescence-labelled peptides as substrate at 8 uM after 90 mins by microfluidic peptide phosphorylation assay

Chain of Mitogen-activated protein kinase 3 (Homo sapiens) (P27361 whole entry, the tested form may be a part): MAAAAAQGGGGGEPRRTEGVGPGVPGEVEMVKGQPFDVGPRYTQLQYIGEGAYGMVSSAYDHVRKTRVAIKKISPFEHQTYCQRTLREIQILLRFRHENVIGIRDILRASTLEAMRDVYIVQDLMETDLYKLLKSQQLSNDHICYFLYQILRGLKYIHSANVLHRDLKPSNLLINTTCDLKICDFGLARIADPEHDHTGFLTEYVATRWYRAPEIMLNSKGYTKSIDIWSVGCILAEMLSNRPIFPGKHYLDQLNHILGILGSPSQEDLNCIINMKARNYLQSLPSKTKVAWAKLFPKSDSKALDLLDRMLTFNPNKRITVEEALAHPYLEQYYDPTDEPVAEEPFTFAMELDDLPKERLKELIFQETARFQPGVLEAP

Structure (SMILES): NCC1CN(c2ncnc3[nH]c4cnccc4c23)CCO1 (centres undefined)
- inhibition [1]: 8.5%
- inhibition [2]: 53%

Structure (SMILES): NCCc1ccc(-c2ncnc3[nH]cnc23)cc1
- inhibition [3]: 6.5%
- inhibition [4]: 39.5%

Structure (SMILES): NC1(Cc2ccc(Cl)cc2)CCN(c2ncnc3[nH]ccc23)CC1
- inhibition [5]: 7%

Structure (SMILES): C[C@H](CN(C)C)Oc1nc(Nc2cc3cccc(Cl)c3cn2)cnc1C#N
- inhibition [6]: 9.5%
- inhibition [7]: 5.5%
- inhibition [8]: 0%

Structure (SMILES): COC(=O)c1cnc(Nc2cnc(C#N)cn2)cc1NCC1CCNCC1
- inhibition [9]: 2%

Structure (SMILES): c1nc(N2CCOCC2)c2nc[nH]c2n1
- inhibition [10]: 67.5%

Structure (SMILES): Clc1ccc(C2(c3ccc(-c4ncnc5[nH]cnc45)cc3)CCNCC2)cc1
- inhibition [11]: 4%

Structure (SMILES): NC1CCN(c2ncnc3[nH]ccc23)CC1
- inhibition [12]: 5%

Structure (SMILES): NCC1CCN(c2ncnc3[nH]ccc23)CC1
- inhibition [13]: 14%
- inhibition [14]: 36.5%
